Data: US6994862B2, “Formulation solubilizing water-insoluble agents and preparation method thereof” (Korea Institute of Science and Technology, priority 2000, dated 2006)

Test: Release experiment of a pharmaceutical compound (dialysis bag, PBS pH 7.4, 37° C.)
Format: physicochemical
Conditions: within 5 hr; dialysis bag in PBS pH 7.4, 37° C.
Procedure: Dispersion was prepared by mixing 250 μL of the above liquid formulation with 1.75 mL of distilled water and shaken manually. The mixture was then added into a dialysis bag (MWCO=3,500, Spectra/Por^R, Spectrum Medical Industries, Inc., USA), both ends were tied with a closure, and placed into a 50 ml conical tube containing 10 ml of phosphate buffered saline (PBS, pH=7.4). The conical tube was placed in a 37° C. shaking water bath for the release experiment. The PBS solution located outside the dialysis tube was collected at regular intervals to analyze concentration of the pharmaceutical compound released from the dialysis bag by using Fluorescence spectroscopy (λex=370 nm, λem=480 nm). An aqueous solution where 0.7 mg of rifampicin was dissolved in 2 mL of distilled water was used as a control.
Release experiment was performed using the liquid formulation manufactured the same as in the experimental Example 1 with the exception that 0.7 mg of bromocresol green was used in place of rifampicin. The released drug was collected from the PBS solution and subsequently analyzed for its absorbance at 617 nm. An aqueous solution, where 0.7 mg of bromocresol green was dissolved in 2 mL of distilled water, was used as a control.

drug released: more than 80%
SMILES: Cc1c(C2(c3cc(Br)c(O)c(Br)c3C)OS(=O)(=O)c3ccccc32)cc(Br)c(O)c1Br [bromocresol green]
